Results as given in paper PMC12203697, “Bioactive constituents from the edible seaweed Halymenia hawaiiana (Rhodophyta)” (Pharmaceutical Biology, 2025).
≈ marks a conversion by molar mass, not a printed value. Where a name gives a salt, the structure may show the parent alone. Read-outs that look alike come from different tables or passages of the source.

Legend:
S. aureus CART817 = experiment: Antibacterial MIC, broth microdilution with resazurin; type: cell-based; settings: Staphylococcus aureus; S. aureus CART817, Gram-positive; read-out: MIC
Experimental: (§1) The minimum inhibitory concentrations (MICs) were determined using a two-fold serial dilution method with MHB following the recommendations of the Clinical and Laboratory Standards Institute (CLSI [2012]; Elshikh et al. [2016]). In brief, serial two-fold dilutions of the samples in DMSO were mixed with MHB in a 96-well microplate. Then, 50 µL of bacteria suspension was added to each well, resulting in a final concentration of 1 × 10^4 colony-forming units/well. The plates were incubated at 35–37 °C for 18–24 hr. After incubation, 10 µL of 0.18% resazurin (Cat. No. R7017, Sigma-Aldrich, USA) was added to each well (Elshikh et al. [2016]). The MIC was assessed within 2–3 hr after the addition of resazurin. All antimicrobial assays were performed in triplicate, using vancomycin (Cat. No. SBR00001, Sigma-Aldrich, USA) and gentamicin (Cat. No. G1397, Sigma-Aldrich, USA) as standard controls.

E. coli = experiment: as above; type: cell-based; settings: Escherichia coli, Gram-negative
Source text: (§2) Methicillin-resistant Staphylococcus aureus (MRSA), methicillin-susceptible S. aureus (MSSA), and Gram-negative clinical isolates of bacteria [Escherichia coli (9637) and Serratia marcescens ATCC 13880] were used for this study. […] MSSA HBP10, MSSA LUU7, MSSA R113, S. aureus ONE9, and MSSA POB2 were isolated in Hawaiʻi (Gerken et al. [2021]). Mueller Hinton Broth (MHB, GTIN:00382902979630, Becton, Dickinson and Company, Franklin Lakes, NJ, USA) and Mueller Hinton Agar (MHA, GTIN:00382902252504, Becton, Dickinson and Company, Franklin Lakes, NJ, USA,) were used for bacterial inoculation. MRSA was a pathogen strain causing hospital-acquired infections in 1982. This strain easily acquires resistance to antibiotics, such as vancomycin. MSSA strains isolated from the Island of Hawaiʻi included: Honolʻii Beach Park (HBP10) carry the genes erm(C), aph(3′)-III, and mecA, which provide resistance to macrolide, aminoglycoside, and beta-lactam antibiotics, respectively; Wailuku River (LUU7) which contains the blaZ gene (beta-lactam resistance) (Gerken et al. [2021]). Richardson’s Beach Park (R113) and Onekahakaha (ONE9) which is known for its virulence factors (hlgA, hlgB, hlgC, lukD, and lukE).
as §1

MSSA R113 = experiment: as above; type: cell-based; settings: Staphylococcus aureus; MSSA R113, Gram-positive; read-out: MIC
Source text: as §2, §1

S. aureus 8325-4 = experiment: as above; type: cell-based; settings: Staphylococcus aureus, 83254; S. aureus 8325-4, Gram-positive; read-out: MIC
Source text: as §2, §1

S. aureus ONE9 = experiment: as above; type: cell-based; settings: Staphylococcus aureus; S. aureus ONE9, Gram-positive; read-out: MIC
Source text: as §2, §1

MRSA USA300 = experiment: as above; type: cell-based; settings: Staphylococcus aureus; MRSA USA300, Gram-positive; read-out: MIC
Source text: as §2, §1

MSSA LUU7 = experiment: as above; type: cell-based; settings: Staphylococcus aureus; MSSA LUU7, Gram-positive; read-out: MIC
Source text: as §2, §1

MRSA HBP10 = experiment: as above; type: cell-based, Staphylococcus aureus; settings: MRSA HBP10, Gram-positive
Source text: as §2, §1

MRSA POB2 = experiment: as above; type: cell-based, Staphylococcus aureus; settings: MRSA POB2, Gram-positive
Source text: as §2, §1

S. aureus NEWMAN = experiment: as above; type: cell-based, Staphylococcus aureus; settings: Staphylococcus aureus; S. aureus NEWMAN, Gram-positive; read-out: MIC
Source text: as §2, §1

S. marcescent = experiment: as above; type: cell-based, Serratia marcescens; settings: Gram-negative
Source text: as §2, §1

[1] = tested on: LPS-induced nitric oxide (NO) production in RAW 264.7 cells; experiment: Inhibition of NO generation in LPS-induced RAW 264.7 cells (Griess); type: cell-based, murine; settings: RAW 264.7 cells; for NO inhibitory activity (in words): LPS-induced, highest concentration 50 μg/mL
Experimental: The nitrite concentration in the culture medium was measured to indicate nitric oxide (NO) production as previously described (Min et al. [2009]). The murine macrophage RAW 264.7 cell line was obtained from ATCC, Manassas, VA, USA, and maintained in Dulbecco’s modified Eagle’s medium supplemented with 10% heat-inactivated FBS (Cat. No. A5670801, Gibco BRL Co, Grand Island, NY, USA), penicillin G (100 units/mL) (Cat. No. P7794, Sigma-Aldrich, USA), streptomycin (100 µg/mL) (Cat. No. S9137, Sigma-Aldrich, USA), and L-glutamine (2 mM) (Cat. No. 25030081, Gibco BRL Co, Grand Island, NY, USA). In brief, RAW 264.7 cells were seeded at a density of 4 × 10^4 cells/well in phenol red-free media (Cat. No. 11835030, Gibco, USA) in a 96-well plate, and incubated in a humidified incubator with 5% CO2 at 37 °C for 24 hr. […] The concentration of nitric oxide production was assessed using the Griess reagent, which consists of a 1:1 (v/v) mixture of 1% sulfanilamide (Cat No. A13001, Alfa Aesar, Massachusetts, USA) in H3PO4 and N-(1-naphthyl)ethylenediamine dihydrochloride (Cat. No. 102397, MP Biomedicals, USA). Absorbance was recorded with a microplate reader (SynergyMx, BioTeK, Winooski, VT, USA) at 540 nm. A standard curve was created using sodium nitrite (1–100 μM) (Cat. No. 44227, Alfa Aesar, Massachusetts, USA). A sulforhodamine B (SRB) assay was employed to assess the cellular viability of the samples with RAW 264.7 cells under a similar experimental setup. The final % inhibition of NO production was adjusted based on cell viability.

[2] = tested on: A549 human lung carcinoma epithelial cells; experiment: SRB cytotoxicity assay, A549 cells; settings: SRB assay; for cytotoxic response against A549 cells (in words): 72 h, highest concentration tested 100 µg/ml
Experimental: After incubation, cells were fixed with trichloroacetic acid (Cat. No. T4885, Sigma-Aldrich, USA), stained with SRB (Cat. No. S9012, Sigma-Aldrich, USA), and the absorbance was measured at 515 nm. Percent cell death was calculated using the following equation: % Cell death=(ODc−OD0)‐(ODs−OD0)/(ODc−OD0)×100
OD0 = Optical density of cells before treatment (baseline reading).
ODC = Optical density of untreated control cells after 72 h.
ODS = Optical density of cells treated with the test sample after 72 h.
Non-linear regression analysis was performed using GraphPad Prism to calculate the IC50 value. This value reflects the concentration needed to inhibit cell growth by 50%.
All data are presented as mean ± standard error of the mean (SEM) and were collected from three separate experiments. Statistical analyses were conducted using Student’s t-test or ANOVA, followed by Tukey’s multiple comparisons test. Significance is indicated by *p < 0.05, **p < 0.01, and ***p < 0.001.

[3] = Ferric-reducing antioxidant power (FRAP) assay
Experimental: The FRAP assay was used to evaluate antioxidant activity based on the ability of the sample to reduce Fe^3+-TPTZ (2,4,6-tris(2-pyridyl)-S-triazine) to Fe^2+-TPTZ (Benzie and Strain [1996]). This reduction results in a color change from colorless to blue. The absorbance was measured at 593 nm using a Microplate Reader (BioTek ELx800 Instruments Inc. Winooski, Vermont, USA) with the Gen 5 software for FRAP value calculations. A ferrous sulfate heptahydrate (FeSO4 · 7H2O) (Cat. No. 215422, Sigma-Aldrich, USA) standard curve, ranging from 1000 µM to 50 µM, was prepared for the assay. The FRAP reagent consists of 300 mM sodium acetate buffer (pH 3.6) (Cat. No. 90358, Sigma-Aldrich, USA), 10 mM TPTZ solution (Cat. No. T1253, Sigma-Aldrich, USA), and 20 mM ferric (III) chloride hexahydrate (FeCl3 · 6H2O) (Cat. No. 236489, Sigma-Aldrich, USA) in a 10:1:1 ratio, respectively, and heated to 37 °C for ten minutes before use. A blank was measured at 593 nm with 150 µL FRAP reagent added to each well of a 96-well microtiter plate. Samples (20 µL of each sample) (1, 0.5, 0.25 mg/mL) and ascorbic acid (Sigma-Aldrich, Cat. No. A4403) positive control (1 mg/mL) were added in triplicates. Reducing capacity was expressed by FRAP values in an µM FeSO4/µg sample unit.

[4] = Staphylococcus aureus, read-out: MIC
[5] = Serratia marcescens, read-out: MIC

| SMILES | MIC (S. aureus CART817) [µg/mL] | MIC (E. coli) [µg/mL] | MIC (MSSA R113) [µg/mL] | MIC (S. aureus 8325-4) [µg/mL] | MIC (S. aureus ONE9) [µg/mL] | MIC (MRSA USA300) [µg/mL] | MIC (MSSA LUU7) [µg/mL] | MIC (MRSA HBP10; [4]) [µg/mL] | MIC (MRSA POB2; [4]) [µg/mL] | MIC (S. aureus NEWMAN) [µg/mL] | MIC (S. marcescent; [5]) [µg/mL] | NO inhibitory activity (in words) [1] | cytotoxic response against A549 cells (in words) [2] | FRAP ([3]; FeSO4 standard curve) [µM] | FRAP ([3]; µM FeSO4/µg sample) [µM/µg] | other results |
| --- | --- | --- | --- | --- | --- | --- | --- | --- | --- | --- | --- | --- | --- | --- | --- | --- |
| Nc1ncnc2c1ncn2[C@H]1C[C@H](O)[C@@H](CO)O1 [Compound 2, deoxyadenosine] | 128 (≈ 509 µM) | 128 (≈ 509 µM) | 128 (≈ 509 µM) | 128 (≈ 509 µM) | 128 (≈ 509 µM) | 128 (≈ 509 µM) | 128 (≈ 509 µM) | 128 (≈ 509 µM) | 128 (≈ 509 µM) | 128 (≈ 509 µM) | 64 (≈ 255 µM) | no significant NO inhibitory activity | no cytotoxic response |  |  |  |
| O=C1O[C@H]([C@@H](O)CO)C(O)=C1O [Ascorbic acid, ascorbic acid, reference compound] |  |  |  |  |  |  |  |  |  |  |  |  |  | 2847.40 | 35.59 ± 0.09 | FRAP ([3]; µM FeSO4/µg sample, listed as ascorbic acid): 35.59 µM/µg |
| [H]/N=C(/NC)NCCC[C@H](N)C(=O)O [L-NMMA, L-N-Monomethyl Arginine citrate, reference compound] |  |  |  |  |  |  |  |  |  |  |  |  |  |  |  | IC50 ([1]; Mus musculus, RAW264.7, LPS 1 μg/mL, adjusted for cell viability, read-out: IC50, inhibition of LPS-induced NO production): 43.5 ± 1.8 µM |
| CCCCCCCCC1CC1CCCCCCCC(=O)O (stereo not drawn) [Compound 7, dihydrosterculic acid] |  |  |  |  |  |  |  |  |  |  |  |  |  | 230.06 | 2.88 ± 0.03 | MIC (MRSA HBP10): Inactive; MIC (MRSA POB2): Inactive; MIC (S. marcescent): Inactive |
| Nc1cc[nH]c(=O)n1 [Compound 3, cytosine] | 128 (≈ 1150 µM) | 128 (≈ 1150 µM) | 128 (≈ 1150 µM) | 128 (≈ 1150 µM) | 128 (≈ 1150 µM) | 128 (≈ 1150 µM) | 128 (≈ 1150 µM) | 128 (≈ 1150 µM) | 128 (≈ 1150 µM) | 128 (≈ 1150 µM) | 128 (≈ 1150 µM) | no significant NO inhibitory activity | no cytotoxic response |  |  |  |
| N.N.[Cl][Pt][Cl] [cisplatin, Cisplatin, reference compound] |  |  |  |  |  |  |  |  |  |  |  |  |  |  |  | IC50 ([2]; read-out: IC50, cytotoxicity against A549 cells, 72 h exposure): 4.2 ± 0.3 µM |
